Measured values taken from PubChem BioAssay (NCI).
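Compound exposure: 48 hours, 5 concentrations, 96-well plates. The concentration for full growth arrest is given as TGI.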

Assays:
Assay in all cases: growth of human tumour cells (NCI), 48 h
[1] = test system: SK-MEL-2 melanoma
[2] = test system: UO-31 renal
[3] = test system: COLO 205 colon
[4] = test system: TK-10 renal
[5] = test system: SK-MEL-5 melanoma
[6] = test system: NCI-H522 lung
[7] = test system: SN12C renal
[8] = test system: HT29 colon
[9] = test system: SW-620 colon
[10] = test system: NCI-H460 lung
[11] = test system: LXFL 529 NSCLC
[12] = test system: A498 renal
[13] = test system: K-562 leukemia
[14] = test system: LOX IMVI melanoma
[15] = test system: ACHN renal
[16] = test system: SF-295 CNS
[17] = test system: SF-268 CNS
[18] = test system: IGROV1 ovarian
[19] = test system: HCT-116 colon
[20] = test system: SNB-19 CNS
[21] = test system: CCRF-CEM leukemia
[22] = test system: DLD-1 colon
[23] = test system: MOLT-4 leukemia
[24] = test system: RXF 393 renal
[25] = test system: 786-0 renal
[26] = test system: SR leukemia
[27] = test system: OVCAR-3 ovarian
[28] = test system: DMS 114 small cell lung
[29] = test system: RPMI-8226 leukemia
[30] = test system: OVCAR-4 ovarian
[31] = test system: HCT-15 colon
[32] = test system: M19-MEL melanoma
[33] = test system: EKVX NSCLC
[34] = test system: UACC-257 melanoma
[35] = test system: SNB-75 CNS
[36] = test system: SK-OV-3 ovarian
[37] = test system: A549 NSCLC
[38] = test system: CAKI-1 renal
[39] = test system: DMS 273 small cell lung
[40] = test system: KM12 colon
[41] = test system: U251 CNS
[42] = test system: HCC-2998 colon
[43] = test system: HL-60(TB) leukemia
[44] = test system: UACC-62 melanoma
[45] = test system: OVCAR-8 ovarian
[46] = test system: OVCAR-5 ovarian
[47] = test system: HOP-62 NSCLC
[48] = test system: SK-MEL-28 melanoma
[49] = test system: NCI-H23 lung
[50] = test system: MALME-3M melanoma
[51] = test system: M14 melanoma
[52] = test system: T-47D breast
[53] = test system: MDA-N
[54] = test system: NCI-H226 lung
[55] = test system: BT-549 breast
[56] = test system: MDA-MB-435
[57] = test system: PC-3 prostate
[58] = test system: MCF7 breast
[59] = test system: MDA-MB-231 breast
[60] = test system: SF-539 CNS
[61] = test system: HOP-92 NSCLC
[62] = test system: NCI/ADR-RES ovarian
[63] = test system: DU-145 prostate
[64] = test system: HS 578T breast

Which results are given for `CCOC(=O)[C@H]1CSC[C@@H](C(=O)OC)N1`?
TGI [1]: > 100 µM; TGI [2]: > 100 µM; TGI [3]: > 100 µM; TGI [4]: > 100 µM; TGI [5]: > 100 µM; TGI [6]: > 100 µM; TGI [7]: > 100 µM; TGI [8]: > 100 µM; TGI [9]: > 100 µM; TGI [10]: > 100 µM; TGI [11]: > 100 µM; TGI [12]: > 100 µM; TGI [13]: > 100 µM; TGI [14]: > 100 µM; TGI [15]: > 100 µM; TGI [16]: > 100 µM; TGI [17]: > 100 µM; TGI [18]: > 100 µM; TGI [19]: > 100 µM; TGI [20]: > 100 µM; TGI [21]: > 100 µM; TGI [22]: > 100 µM; TGI [23]: > 100 µM; TGI [24]: > 100 µM; TGI [25]: > 100 µM; TGI [26]: > 100 µM; TGI [27]: > 100 µM; TGI [28]: > 100 µM; TGI [29]: > 100 µM; TGI [30]: > 100 µM; TGI [31]: > 100 µM; TGI [32]: > 100 µM; TGI [33]: > 100 µM; TGI [34]: > 100 µM; TGI [35]: > 100 µM; TGI [36]: > 100 µM; TGI [37]: > 100 µM; TGI [38]: > 100 µM; TGI [39]: > 100 µM; TGI [40]: > 100 µM; TGI [41]: > 100 µM; TGI [42]: > 100 µM; TGI [43]: > 100 µM; TGI [44]: > 100 µM; TGI [45]: > 100 µM; TGI [46]: > 100 µM; TGI [47]: > 100 µM; TGI [48]: > 100 µM; TGI [49]: > 100 µM; TGI [50]: > 100 µM; TGI [51]: > 100 µM

Which TGI [1] does the source give for `CCCCCC(O)(CCCCC)CCCCCCCCC1=C(O)c2ccccc2C(=O)C1=O` here?
The TGI was 27.7 µM.

And the TGI [2]?
Its TGI is 28 µM.

And the TGI [3]?
Its TGI is 42.4 µM.

What about the TGI [4] of the same compound?
The TGI was > 75.5 µM.

And the TGI [5]?
The TGI was 14.5 µM.

What about the TGI [6] of the same compound?
Its TGI is 67.9 µM.

What about the TGI [7] of the same compound?
The TGI was 23.5 µM.

And the TGI [8]?
Its TGI is 27.9 µM.

And the TGI [9]?
Its TGI is 32 µM.

And the TGI [10]?
The TGI was 17.7 µM.

And the TGI [52]?
The TGI was 75.2 µM.

And the TGI [12]?
The TGI was 21.5 µM.

And the TGI [53]?
Its TGI is 31.3 µM.

And the TGI [13]?
Its TGI is 21.6 µM.

What about the TGI [14] of the same compound?
The TGI was 18 µM.

What about the TGI [15] of the same compound?
The TGI was > 100 µM.

And the TGI [16]?
The TGI was 40.5 µM.

And the TGI [17]?
The TGI was 33.7 µM.

What about the TGI [18] of the same compound?
The TGI was 26.4 µM.

What about the TGI [19] of the same compound?
The TGI was 15.2 µM.

What about the TGI [20] of the same compound?
Its TGI is 24.9 µM.

What about the TGI [21] of the same compound?
The TGI was > 100 µM.

And the TGI [23]?
The TGI was 12.4 µM.

And the TGI [54]?
Its TGI is 36.4 µM.

And the TGI [55]?
The TGI was 39.6 µM.

And the TGI [24]?
Its TGI is 29.9 µM.

What about the TGI [25] of the same compound?
Its TGI is 30.5 µM.

And the TGI [26]?
Its TGI is 13.9 µM.

What about the TGI [56] of the same compound?
The TGI was > 62.4 µM.

What about the TGI [57] of the same compound?
Its TGI is 24.6 µM.

What about the TGI [27] of the same compound?
Its TGI is 29.4 µM.

And the TGI [29]?
Its TGI is 11.5 µM.

And the TGI [58]?
The TGI was 23.6 µM.

And the TGI [30]?
Its TGI is > 48.8 µM.

What about the TGI [31] of the same compound?
The TGI was 15.6 µM.

And the TGI [33]?
The TGI was 60.1 µM.

What about the TGI [59] of the same compound?
Its TGI is 32 µM.

And the TGI [34]?
Its TGI is > 66.5 µM.

And the TGI [60]?
The TGI was 27.5 µM.

What about the TGI [61] of the same compound?
The TGI was 33.6 µM.

And the TGI [35]?
The TGI was > 80.2 µM.

And the TGI [36]?
The TGI was > 64.1 µM.

What about the TGI [37] of the same compound?
Its TGI is > 53.6 µM.

What about the TGI [38] of the same compound?
The TGI was > 56.1 µM.

What about the TGI [62] of the same compound?
The TGI was 21.8 µM.

What about the TGI [40] of the same compound?
The TGI was 19.4 µM.

And the TGI [41]?
The TGI was 14.5 µM.

And the TGI [42]?
The TGI was 30.5 µM.

What about the TGI [43] of the same compound?
The TGI was 14 µM.

And the TGI [44]?
Its TGI is 21.1 µM.

And the TGI [45]?
Its TGI is 33 µM.

And the TGI [46]?
The TGI was 46.1 µM.

And the TGI [47]?
Its TGI is 25.6 µM.

And the TGI [63]?
Its TGI is 25.7 µM.

And the TGI [48]?
Its TGI is > 46.2 µM.

What about the TGI [49] of the same compound?
Its TGI is 21.9 µM.

And the TGI [64]?
Its TGI is 54.5 µM.

And the TGI [50]?
Its TGI is 28.6 µM.

What about the TGI [51] of the same compound?
The TGI was 24.8 µM.
